Test system: HT29 colon cells
Test: TMRE mitochondrial membrane potential (MtMP) assay
Type: cell-based, human
Details: 24 h, GI50 drug concentration (FCCP 20 μM), control 542 ± 4
Protocol: This was achieved by determining if the overproduction of ROS induced by these complexes impacts mitochondrial activity by altering MtMP. Briefly, there is evidence showing a strong correlation between increased levels of ROS and mitochondrial impairment. […] The MtMP changes recorded are measured as RFU. […] To investigate the MtMP changes in HT29 treated cells, a TMRE-MtMP Assay Kit (Abcam, Cambridge, MA, USA) was used, as previously described. In 96-well plates, 25,000 cells/mL of HT29 colon cells in DMEM were seeded. Cells were treated with a GI50 drug concentration for each complex. At 24, 48 or 72 h, cells were washed with PBS and stained with tetramethylrhodamine, ethyl ester (TMRE) (1 μM) and incubated for 30 min. TMRE was then removed, and cells were then re-washed with PBS (0.2% BSA), after which phenol red free media was added. The plates were directly scanned to measure fluorescence (expressed as RFU), using the Glo-Max®-Multimode microplate reader (Promega Corporation, Alexandra, VIC, Australia) at an excitation/emission of 549/575 nm. For the positive control, 20 μM carbonyl cyanide 4-(trifluoromethoxy) phenylhydrazone (FCCP)) was added to the cells and incubated for 10 min. The cells were washed with PBS (0.2% BSA) and stained with TMRE (1 μM) for 30 min; this was removed, and phenol red free media was added, and the final solution was scanned as mentioned above.

SMILES	MtMP Changes [RFU]
Cc1c(C)c2cccnc2c2ncccc12.N[C@H]1CCCC[C@@H]1N.[OH][Pt+2][OH] [56MESS(IV)(OH)2]	291 ± 9
N[C@H]1CCCC[C@@H]1N.[OH][Pt+2][OH].c1cnc2c(c1)ccc1cccnc12 [PHENSS(IV)(OH)2]	328 ± 7

Same assay, conditions: 48 h, GI50 drug concentration (FCCP 20 μM), control 507 ± 11

SMILES	MtMP Changes [RFU]
Cc1c(C)c2cccnc2c2ncccc12.N[C@H]1CCCC[C@@H]1N.[OH][Pt+2][OH] [56MESS(IV)(OH)2]	221 ± 5
N[C@H]1CCCC[C@@H]1N.[OH][Pt+2][OH].c1cnc2c(c1)ccc1cccnc12 [PHENSS(IV)(OH)2]	314 ± 6

Same assay, conditions: 72 h, GI50 drug concentration (FCCP 20 μM), control 449 ± 10

SMILES	MtMP Changes [RFU]
Cc1c(C)c2cccnc2c2ncccc12.N[C@H]1CCCC[C@@H]1N.[OH][Pt+2][OH] [56MESS(IV)(OH)2]	188 ± 5
N[C@H]1CCCC[C@@H]1N.[OH][Pt+2][OH].c1cnc2c(c1)ccc1cccnc12 [PHENSS(IV)(OH)2]	234 ± 11

Test system: histone deacetylase (HDAC)
Test: Fluorometric HDAC activity assay on extracts of treated HT29 cells
Type: cell-based, human
Details: HT29 colon cells treated 72 h at GI50 concentration; lower RFU = decline in HDAC activity; HT29 extract control 5154 ± 40
Protocol: All values are expressed as RFU.
To study the HDAC activity in HT29 treated cells, a Fluorometric HDAC Activity Assay Kit ab156064 (Abcam, Cambridge, MA, USA) was used and all sample preparations were made based on the manufacturer’s protocol. A total of 10^6 cells/mL of HT29 cells were seeded in DMEM with serum deprivation for 18 h to synchronise the cells. […] Cells were then washed with cold PBS and resuspended in lysis buffer (10 mM Tris HCl (pH 7.5), 10 mM NaCl, 15 mM MgCl2, 250 mM sucrose, 0.5% NP-40 and 0.1 mM EGTA) and lysed on ice for 20 min. Cells were centrifuged through 4 mL of sucrose cushion (30% sucrose, 10mM Tris HCl (pH 7.5), 10 mM NaCl and 3mM MgCl2) at 1300× g for 10 min at 4 °C. Supernatant was discarded and the pellet was washed and resuspended in extraction buffer (50 mM HEPES-KOH (pH 7.5), 420 mM NaCl, 0.5 mM EDTA 2Na, 0.1 mM EGTA and 10% glycerol) and then sonicated for 30 s. Nuclei were lysed for 30 min on ice and centrifuged at 20,000× g for 30 min. The supernatant was collected, and the samples were prepared for the fluorometric assay according to the manufacturer’s protocol (Histone Deacetylase (HDAC) Activity Assay Fluorometric Kit ab156064, Abcam). The changes in the relative fluorescence intensity (expressed as RFU) were recorded each minute over 60 min using the Glo-Max®-Multimode microplate reader (Promega Corporation, Alexandra, VIC, Australia) at an excitation/emission of 355/460 nm.

SMILES	HDAC Inhibition at 72 h [RFU]
Cc1c(C)c2cccnc2c2ncccc12.N[C@H]1CCCC[C@@H]1N.[OH][Pt+2][OH] [56MESS(IV)(OH)2]	3011 ± 23
N[C@H]1CCCC[C@@H]1N.[OH][Pt+2][OH].c1cnc2c(c1)ccc1cccnc12 [PHENSS(IV)(OH)2]	4107 ± 19

Test system: HT29 colon
Test: not given
Parameters: method as in PMID 36142383, PMID 37173934, PMID 36296713
Details: cited from earlier work

SMILES	GI50 [nM]
Cc1c(C)c2cccnc2c2ncccc12.N[C@H]1CCCC[C@@H]1N.[OH][Pt+2][OH] [56MESS(IV)(OH)2]	36 ± 7
N[C@H]1CCCC[C@@H]1N.[OH][Pt+2][OH].c1cnc2c(c1)ccc1cccnc12 [PHENSS(IV)(OH)2]	710 ± 300

Test system: U87 glioblastoma
Test: not given
Parameters: method as in PMID 36142383, PMID 37173934, PMID 36296713
Details: cited from earlier work

SMILES	GI50 [nM]
Cc1c(C)c2cccnc2c2ncccc12.N[C@H]1CCCC[C@@H]1N.[OH][Pt+2][OH] [56MESS(IV)(OH)2]	190 ± 23
N[C@H]1CCCC[C@@H]1N.[OH][Pt+2][OH].c1cnc2c(c1)ccc1cccnc12 [PHENSS(IV)(OH)2]	4900 ± 610

Test system: H460 lung
Test: not given
Parameters: method as in PMID 36142383, PMID 37173934, PMID 36296713
Details: cited from earlier work

SMILES	GI50 [nM]
Cc1c(C)c2cccnc2c2ncccc12.N[C@H]1CCCC[C@@H]1N.[OH][Pt+2][OH] [56MESS(IV)(OH)2]	190 ± 150
N[C@H]1CCCC[C@@H]1N.[OH][Pt+2][OH].c1cnc2c(c1)ccc1cccnc12 [PHENSS(IV)(OH)2]	1700 ± 200

Test system: A431 skin
Test: not given
Parameters: method as in PMID 36142383, PMID 37173934, PMID 36296713
Details: cited from earlier work

SMILES	GI50 [nM]
Cc1c(C)c2cccnc2c2ncccc12.N[C@H]1CCCC[C@@H]1N.[OH][Pt+2][OH] [56MESS(IV)(OH)2]	120 ± 22
N[C@H]1CCCC[C@@H]1N.[OH][Pt+2][OH].c1cnc2c(c1)ccc1cccnc12 [PHENSS(IV)(OH)2]	4300 ± 530

Test system: Du145 prostate
Test: not given
Parameters: method as in PMID 36142383, PMID 37173934, PMID 36296713
Details: cited from earlier work

SMILES	GI50 [nM]
Cc1c(C)c2cccnc2c2ncccc12.N[C@H]1CCCC[C@@H]1N.[OH][Pt+2][OH] [56MESS(IV)(OH)2]	15 ± 2.6
N[C@H]1CCCC[C@@H]1N.[OH][Pt+2][OH].c1cnc2c(c1)ccc1cccnc12 [PHENSS(IV)(OH)2]	310 ± 92

Test system: BE2-C neuroblastoma
Test: not given
Parameters: method as in PMID 36142383, PMID 37173934, PMID 36296713
Details: cited from earlier work

SMILES	GI50 [nM]
Cc1c(C)c2cccnc2c2ncccc12.N[C@H]1CCCC[C@@H]1N.[OH][Pt+2][OH] [56MESS(IV)(OH)2]	240 ± 22
N[C@H]1CCCC[C@@H]1N.[OH][Pt+2][OH].c1cnc2c(c1)ccc1cccnc12 [PHENSS(IV)(OH)2]	3000 ± 530

Test system: SJ-G2 glioblastoma
Test: not given
Parameters: method as in PMID 36142383, PMID 37173934, PMID 36296713
Details: cited from earlier work

SMILES	GI50 [nM]
Cc1c(C)c2cccnc2c2ncccc12.N[C@H]1CCCC[C@@H]1N.[OH][Pt+2][OH] [56MESS(IV)(OH)2]	210 ± 45
N[C@H]1CCCC[C@@H]1N.[OH][Pt+2][OH].c1cnc2c(c1)ccc1cccnc12 [PHENSS(IV)(OH)2]	1700 ± 350

Test system: MIA pancreas
Test: not given
Parameters: method as in PMID 36142383, PMID 37173934, PMID 36296713
Details: cited from earlier work

SMILES	GI50 [nM]
Cc1c(C)c2cccnc2c2ncccc12.N[C@H]1CCCC[C@@H]1N.[OH][Pt+2][OH] [56MESS(IV)(OH)2]	43 ± 2.5
N[C@H]1CCCC[C@@H]1N.[OH][Pt+2][OH].c1cnc2c(c1)ccc1cccnc12 [PHENSS(IV)(OH)2]	3400 ± 2200

Test system: A2780 ovarian
Test: not given
Parameters: method as in PMID 36142383, PMID 37173934, PMID 36296713
Details: cited from earlier work

SMILES	GI50 [nM]
Cc1c(C)c2cccnc2c2ncccc12.N[C@H]1CCCC[C@@H]1N.[OH][Pt+2][OH] [56MESS(IV)(OH)2]	59 ± 7
N[C@H]1CCCC[C@@H]1N.[OH][Pt+2][OH].c1cnc2c(c1)ccc1cccnc12 [PHENSS(IV)(OH)2]	800 ± 84

Test system: cisplatin-resistant ADDP ovarian variant
Test: not given
Parameters: method as in PMID 36142383, PMID 37173934, PMID 36296713
Details: cited from earlier work

SMILES	GI50 [nM]
Cc1c(C)c2cccnc2c2ncccc12.N[C@H]1CCCC[C@@H]1N.[OH][Pt+2][OH] [56MESS(IV)(OH)2]	170 ± 120
N[C@H]1CCCC[C@@H]1N.[OH][Pt+2][OH].c1cnc2c(c1)ccc1cccnc12 [PHENSS(IV)(OH)2]	1300 ± 350

Test system: MCF-7 breast
Test: not given
Parameters: method as in PMID 36142383, PMID 37173934, PMID 36296713
Details: cited from earlier work

SMILES	GI50 [nM]
Cc1c(C)c2cccnc2c2ncccc12.N[C@H]1CCCC[C@@H]1N.[OH][Pt+2][OH] [56MESS(IV)(OH)2]	480 ± 140
N[C@H]1CCCC[C@@H]1N.[OH][Pt+2][OH].c1cnc2c(c1)ccc1cccnc12 [PHENSS(IV)(OH)2]	16000

Test system: non-tumour-derived MCF10A breast line
Test: not given
Parameters: method as in PMID 36142383, PMID 37173934, PMID 36296713
Details: cited from earlier work

SMILES	GI50 [nM]
Cc1c(C)c2cccnc2c2ncccc12.N[C@H]1CCCC[C@@H]1N.[OH][Pt+2][OH] [56MESS(IV)(OH)2]	61 ± 7
N[C@H]1CCCC[C@@H]1N.[OH][Pt+2][OH].c1cnc2c(c1)ccc1cccnc12 [PHENSS(IV)(OH)2]	1700 ± 200

Test system: multiple human cell lines
Test: not given
Parameters: method as in PMID 36142383, PMID 37173934, PMID 36296713
Details: average over all cell lines; cited from earlier work

SMILES	GI50 [nM]
Cc1c(C)c2cccnc2c2ncccc12.N[C@H]1CCCC[C@@H]1N.[OH][Pt+2][OH] [56MESS(IV)(OH)2]	151 ± 50
N[C@H]1CCCC[C@@H]1N.[OH][Pt+2][OH].c1cnc2c(c1)ccc1cccnc12 [PHENSS(IV)(OH)2]	3320 ± 880

Test system: HT29 colon cells
Test: not given
Parameters: method as in PMID 36142383, PMID 37173934, PMID 36296713
Details: 24 h; cited from earlier work

SMILES	ROS Production [RFU]
Cc1c(C)c2cccnc2c2ncccc12.N[C@H]1CCCC[C@@H]1N.[OH][Pt+2][OH] [56MESS(IV)(OH)2]	259 ± 3
N[C@H]1CCCC[C@@H]1N.[OH][Pt+2][OH].c1cnc2c(c1)ccc1cccnc12 [PHENSS(IV)(OH)2]	144 ± 5

Same assay, conditions: 48 h; cited from earlier work

SMILES	ROS Production [RFU]
Cc1c(C)c2cccnc2c2ncccc12.N[C@H]1CCCC[C@@H]1N.[OH][Pt+2][OH] [56MESS(IV)(OH)2]	356 ± 11
N[C@H]1CCCC[C@@H]1N.[OH][Pt+2][OH].c1cnc2c(c1)ccc1cccnc12 [PHENSS(IV)(OH)2]	273 ± 4

Same assay, conditions: 72 h; cited from earlier work

SMILES	ROS Production [RFU]
Cc1c(C)c2cccnc2c2ncccc12.N[C@H]1CCCC[C@@H]1N.[OH][Pt+2][OH] [56MESS(IV)(OH)2]	438 ± 7
N[C@H]1CCCC[C@@H]1N.[OH][Pt+2][OH].c1cnc2c(c1)ccc1cccnc12 [PHENSS(IV)(OH)2]	303 ± 1

Source: PMC10888562 (International Journal of Molecular Sciences, 2024)
